Assay results as given in the SangsterLogP compilation.

logP	Structure (SMILES)
3.7	O=C(NCCN1CCN(c2ccc(Cl)cc2)CC1)c1ccc(F)cc1
2.47	COc1cccc(C(=O)NCCN2CCN(c3ncccc3C#N)CC2)c1
2.95	Cc1ccc(N2CCN(CCNC(=O)c3ccc(F)cc3)CC2)cc1
2.33	N#Cc1cccnc1N1CCN(CCNC(=O)c2ccc(F)cc2)CC1
3.24	COc1cccc(C(=O)NCCN2CCN(c3ccc(Cl)cn3)CC2)c1
3.36	O=C(NCCN1CCN(c2ccc(Cl)cn2)CC1)c1ccc(F)cc1
3.31	COc1cccc(C(=O)NCCN2CCN(c3ccc(Cl)cc3)CC2)c1
3.02	N#Cc1ccc(N2CCN(CCNC(=O)c3ccc(F)cc3)CC2)cc1
2.83	COc1cccc(C(=O)NCCN2CCN(c3ccc(C)cc3)CC2)c1
